Entries after “also recorded” stand apart in the source; their conditions may differ. Counter-ions that a name gives are not always drawn. Like-named read-outs stand apart in the source and are kept apart here.
Key:
[1] = Reversal of Amphetamine-Induced Hyperlocomotion; type: in vivo; settings: Mus musculus, ip, read-out: Induced Locomotion Amphetamine (minimally effective dose, MED)
Excerpt: Opto-varimex locomotor monitors (Columbus Instruments, Columbus, Ohio) were used to assess locomotor activity. The monitors consist of a 37×37 cm square plexiglass open field surrounded by an outer enclosure housing a 15×15 array of infrared photobeams. Placement of the mouse in the open field interrupts one or more beams. Movement is detected by successive interruption of more than one beam (setting: box size - 1). The monitors were placed on separate shelves in a dark test room. An IBM compatible computer (Compaq) monitored beam interruptions and calculated indices of locomotor activity (distance travelled, time ambulating) and stereotype behavior (number of small movements, time in stereotypy or small movements). Because the dose of amphetamine in these studies was too low to produce selective increases in stereotyped behavior, distance travelled was the primary dependent variable.

sigma sites [2] = assay: Sigma receptor binding assay, [3H]DTG; settings: 5 nM [3H]DTG; guinea pig whole brain; room temperature, 45 minutes; read-out: Receptor Potency Sigma DTG (IC50, nMol)
Method: (§1) Two selective sigma receptor ligands, [^3 H](+)-3-[3-hydroxyphenyl]-N-(1 propyl)piperidine [(+)-3-PPP] and [^3 H] Ditolylguanidine (DTG), were used to label sigma sites in brain tissue.
(§2) The tissue preparation and assay conditions employed when using either of these ligands were essentially the same. Frozen whole guinea pig brains (obtained from Pel-Freez, Rogers, Ariz.) were homogenized in 10 volumes of ice-cold 0.32M sucrose. The resulting pellet was resuspended in 10 volumes of ice-cold 50 mM Tris-HCl (pH 7.4), incubated at 37 ° C. for 30 minutes, and centrifuged at 22,000 × g for 20 minutes. The final tissue suspension was made in 50 mM Tris-HCl (pH 7.4) to a concentration of 20 mg original wet weight/mL. 800 μL of tissue suspension was added to tubes containing 5 nM [^3 H] DTG or 4 nM [^3 H] […] The final assay volume was 1 mL. The assay tubes were gently vortexed, and the binding reaction was carried out for 45 minutes at room temperature. The reaction was terminated by rapid filtration over Whatman GF/B glass fiber filters, which were then rinsed 3x with 5 mL of 50 mM Tris-HCl. Filter bound radioactivity was quantified using liquid scintillation spectrometry.

D2 [3] = biological target: T1, D2 (Rattus norvegicus, UniProt P61169); assay: Dopamine receptor binding, [3H]sulpiride; settings: 3 nM [3H]sulpiride; rat striata; 60 minutes; read-out: Receptor Potency D2 (Ki, nMol)
T1 construct: Rat striata were homogenized; from tissue; host or cells: rat striatum membranes
Method: Dopamine receptor binding was determined using [^3 H] sulpiride. Rat striata were homogenized in 20 volumes of ice-cold 50 mM Tris-HCl (pH 7.5), and the resulting homogenate was centrifuged at 48,000 × g for 10 minutes. The resulting pellet was resuspended in the original volume of 50 mM Tris HCl and centrifuged as previously described. […] The filters were then washed 3 × with 5 mL of 50 mM Tris-HCl containing 100 mM NaCl, and filter bound radioactivity was quantified using liquid scintillation spectrometry.

[4] = Induction of haloperidol-like catalepsy; type: in vivo, mouse; settings: for TD50 at 0.5 h: mouse, in vivo
Excerpt: […]. At the time of the test the front paws of the mouse were placed on a 6 mm diameter rod which was mounted between the side walls of the apparatus, 39 mm above the floor. Gentle pressure was applied from the forefinger to immobilize the animal, with its back in a slightly arched (concave) position. The experimenter then released the mouse and recorded the latency to recover normal posture, as defined by return of at least one forepaw to the floor or placement of one hindlimb on the bar. […] TD50 values for lead compounds and reference compounds were confirmed in side-by-side studies by an experimenter blind to treatment conditions.

[5] = cited from earlier work
sigma sites [6] = biological target: T2, sigma sites (Cavia porcellus, UniProt Q60492); assay: Sigma receptor binding assay, [3H](+)-3-PPP; settings: 4 nM [3H](+)-3-PPP; guinea pig whole brain; room temperature, 45 minutes; read-out: Receptor Potency Sigma PPP (IC50, nMol)
T2 construct: Frozen whole guinea pig brains; tissue Pel-Freez, Rogers, Ariz; host or cells: whole guinea pig brain membranes
Method: as §1, §2

[7] = Reversal of Phencyclidine-Induced Hyperlocomotion; type: in vivo, mouse; settings: for minimal effective dose: Mus musculus, read-out: Induced Locomotion PCP (minimally effective dose, MED)
Excerpt: Opto-varimex locomotor monitors (Columbus Instruments, Columbus, Ohio) were used to assess locomotor activity. The monitors consist of a 37×37 cm square plexiglass open field surrounded by an outer enclosure housing a 15×15 array of infrared photobeams. Placement of the mouse in the open field interrupts one or more beams. Movement is detected by successive interruption of more than one beam (setting: box size - 1). The monitors were placed on separate shelves in a dark test room. An IBM compatible computer (Compaq) monitored beam interruptions and calculated indices of locomotor activity (distance travelled, time ambulating) and stereotype behavior (number of small movements, time in stereotypy or small movements).
Male CFl mice (25°-30 g) were obtained from Harlan Sprague Dawley (Indianapolis, (N) and group-housed with free access to food and water for at least four days prior to testing. All tests took place during the light period of a 12:12 hour light-dark cycle. Each daily test consisted of one group of mice receiving a vehicle injection and an injection of amphetamine as the agonist. One group received two vehicle injections, and one or more groups received test compound plus amphetamine. Test compounds or the appropriate vehicles were administered 20 minutes prior to the locomotor test in studies using an intraperitoneal (i.p.) route of administration with mice, 30 minutes prior to test session for studies using an i.p. route of administration to rats, 45 minutes prior to the test session for studies using an oral (p.o.) route of administration with mice and 55 minutes prior to the locomotor test for studies using a p.o. route of administration to rats.
The procedure and data analysis were identical to that reported above for reversal of amphetamine hyperlocomotion with the exception that 3 mg/kg phencyclidine was injected in place of amphetamine 10 minutes prior to the test session.

sigma binding sites = settings: background statement; cited from earlier work
[8] = background statement; SK&F 10047, PCP, amphetamine; cited from earlier work
D2 [9] = settings: background statement; cited from earlier work
[10] = clinical trials; cited from earlier work
[11] = amphetamine 1.5 mg/kg i.p., mice, NE = no effect to dose shown
[12] = mice, 30 minutes after injection, NE = no effect to dose shown
[13] = mice, 30 minutes after injection, NE = no effect to dose shown, read-out: Catalepsy (TD50)
[14] = phencyclidine 3 mg/kg, mice, NE = no effect to dose shown

T1 sequence (P61169 whole entry): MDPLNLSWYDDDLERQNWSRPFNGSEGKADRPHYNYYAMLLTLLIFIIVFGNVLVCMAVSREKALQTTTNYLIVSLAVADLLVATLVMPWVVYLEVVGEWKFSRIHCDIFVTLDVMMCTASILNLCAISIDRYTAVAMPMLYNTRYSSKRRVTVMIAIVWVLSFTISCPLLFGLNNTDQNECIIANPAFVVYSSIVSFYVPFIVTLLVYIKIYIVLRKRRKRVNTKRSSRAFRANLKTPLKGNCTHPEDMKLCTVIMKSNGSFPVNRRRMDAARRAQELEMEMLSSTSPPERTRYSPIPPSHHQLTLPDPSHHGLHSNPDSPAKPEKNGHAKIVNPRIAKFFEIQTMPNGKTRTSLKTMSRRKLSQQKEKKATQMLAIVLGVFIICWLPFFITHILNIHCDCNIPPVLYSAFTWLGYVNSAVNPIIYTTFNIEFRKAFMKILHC
T2 sequence (Q60492 whole entry): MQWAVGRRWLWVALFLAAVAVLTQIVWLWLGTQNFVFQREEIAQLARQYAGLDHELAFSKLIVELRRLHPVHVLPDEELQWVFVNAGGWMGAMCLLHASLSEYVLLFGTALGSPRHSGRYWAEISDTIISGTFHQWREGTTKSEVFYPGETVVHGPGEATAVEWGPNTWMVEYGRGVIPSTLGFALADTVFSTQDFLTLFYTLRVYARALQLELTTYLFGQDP

| SMILES | minimal effective dose [1, 11] [mg/kg] | IC50 (sigma sites [2]) [nM] | Ki (D2 [3]) [nM] | minimal effective dose [1] [mg/kg] | IC50 (sigma sites [6]) [nM] | also measured |
| --- | --- | --- | --- | --- | --- | --- |
| OC(CCCN1CCN(c2ncc(F)cn2)CC1)c1ccc(F)cc1 (stereo not drawn) [BMY14802, reference compound] | 15 | 237 | 3000 |  |  |  |
| CN1CCN(C2=Nc3cc(Cl)ccc3Nc3ccccc32)CC1 [Clozapine, reference compound] | 1 |  |  |  |  | Catalepsy (TD50) [4, 12]: NE (4); extrapyramidal side effects ([5]; background statement): relatively free of extrapyramidal side effects; agranulocytosis ([5]; chronic administration): produces agranulocytosis upon chronic administration |
| CN(C)CCCCCCOc1ccc2oc(-c3ccccc3)cc(=O)c2c1 [Example 4, 6-[6-Dimethylamino)hexoxy1-2-phenyl-4H-1-benzopyran-4-one hydrochloride] |  | 432 | 5550 | 30 | 335 | TD50 at 0.5 h [4, 13]: 38 mg/kg; Induced Locomotion PCP (minimally effective dose, MED) [7, 14]: NE (30) |
| O=c1cc(-c2ccccc2)oc2ccc(OCCCCCCN3CCC(O)CC3)cc12 [Example 6, 6-6(4-hydroxypiperidinyl)hexoxy]-2-phenyl-4H-1-benzopyran-4-one hydrochloride] | 5 | 100 | 3630 |  | 124 | TD50 at 0.5 h [4]: 61 mg/kg; minimal effective dose [7, 14]: 15 mg/kg |
| O=c1cc(C2CCCCC2)oc2ccc(OCCCCCCN3CCC(O)CC3)cc12 [Example 26, 2-Cyclohexyl-6-[6-4-hydroxypiperidinyl)hexoxy]-4H-1-benzopyran-4-one hydrochloride] | 20 | 88 | 25000 |  | 46 | TD50 at 0.5 h [4]: 50 mg/kg |
| O=c1cc(-c2ccccc2)oc2ccc(OCCCCCCN3CCCCC3)cc12 [Example 28, 2-Phenyl-6-(6-piperidinylhexoxy)-4H-1-benzopyran-4-one hydrochloride] | 20 |  | 4440 |  | 54 | TD50 at 0.5 h [4, 13]: < 30 mg/kg; minimal effective dose [7, 14]: 30 mg/kg |
| O=c1cc(-c2ccccc2)oc2ccc(OCCCCCCN3CCOCC3)cc12 [Example 29, 6-(6-Morpholinylhexoxy)-2-phenyl-4H-1-benzopyran-4-one hydrochloride] |  |  | 18700 | 10 |  | TD50 at 0.5 h [4, 13]: 38 mg/kg |
| O=c1cc(C2CCCCC2)oc2ccc(OCCCCCCN3CCCCC3)cc12 [Example 34, 2-Cyclohexyl-6-(piperidinylhexoxy)-4H-1-benzopyran-4-one hydrochloride] | 10 |  |  |  | 32 | TD50 at 0.5 h [4]: 30 mg/kg |
| O=c1cc(-c2ccccc2)oc2cc(OCCCCCCN3CCC(O)CC3)ccc12 [Example 37, 7-[6-(4-Hydroxypiperidinyl)hexoxy]-2-phenyl-4H-1-benzopyran-4-one] |  |  |  | 30 | 70 |  |
| Cc1c(-c2ccccc2)oc2ccc(OCCCCCCN3CCC(O)CC3)cc2c1=O [Example 39, 6-[6-(4-Hydroxypiperidinyl)hexoxy]-3-methyl-2-phenyl-4H-1-benzopyran-4-one hydrochloride] | 25 |  |  |  |  | Catalepsy (TD50) [4, 12]: NE (250) |
| O=c1cc(-c2ccccc2Cl)oc2ccc(OCCCCCCN3CCC(O)CC3)cc12 [Example 49, 2-(2-Chlorophenyl)-6-(6-(4-hydroxypiperidinyl)hexoxy)-4H-1-benzopyran-4-onehydrochloride] |  | 47 | 4050 | 30 | 29 |  |
| O=C(CCCN1CCC(O)(c2ccc(Cl)cc2)CC1)c1ccc(F)cc1 [Haloperidol, reference compound] |  |  |  | 0.075 |  | TD50 at 0.5 h [4, 13]: 0.14 mg/kg; displacement of [3H]DTG and [3H](+)-3-PPP from sigma sites (sigma binding sites): displace [^3 H]DTG and [^3 H](+)-3-PPP from sigma sites; reversal of stimulant and psychotomimetic effects [8]: antagonize the stimulant/psychotomimetic effects of the dopamine agonist, amphetamine, and presumed sigma agonists such as PCP; also recorded: reverses the stimulant and psychotomimetic effects of SK&F 10047 and PCP; minimal effective dose [7]: 0.15 mg/kg |
| c1ccc(C2(N3CCCCC3)CCCCC2)cc1 [PCP, phencyclidine] |  |  |  |  |  | displacement of [3H]DTG and [3H](+)-3-PPP from sigma sites (sigma binding sites): displace [^3 H]DTG and [^3 H](+)-3-PPP from sigma sites |
| CCN1CCC[C@H]1CNC(=O)c1c(OC)ccc(Br)c1OC [Remoxipride] |  |  |  |  |  | D2 blocking potency (D2 [9]): significant D2 blocking potency |
| C[C@@H]1CN(CCCn2c3ccccc3c3ccccc32)C[C@H](C)N1 [Rimcazole, reference compound] |  | 1620 | 22500 | 20 |  | effectiveness in treating schizophrenia [10]: some effectiveness in treating schizophrenia; seizures [10]: induce seizures; potency at sigma sites (sigma binding sites): only moderately potent at sigma sites; minimal effective dose [7]: > 20 mg/kg |

From patent US5278174A, “Sigma binding site agents” (priority 1991, dated 1994)
